{
  "source": "patent US11987588B2",
  "about": "“Modulators of the beta-3 adrenergic receptor useful for the treatment or prevention of heart failure and disorders related thereto” (Arena Pharmaceuticals, Inc., priority 2017, dated 2024)",
  "data": [
    {"target": "Beta-3 Adrenergic Receptor (Homo sapiens (Human), UniProt P13945)", "sequence (P13945 whole entry, species assumed)": "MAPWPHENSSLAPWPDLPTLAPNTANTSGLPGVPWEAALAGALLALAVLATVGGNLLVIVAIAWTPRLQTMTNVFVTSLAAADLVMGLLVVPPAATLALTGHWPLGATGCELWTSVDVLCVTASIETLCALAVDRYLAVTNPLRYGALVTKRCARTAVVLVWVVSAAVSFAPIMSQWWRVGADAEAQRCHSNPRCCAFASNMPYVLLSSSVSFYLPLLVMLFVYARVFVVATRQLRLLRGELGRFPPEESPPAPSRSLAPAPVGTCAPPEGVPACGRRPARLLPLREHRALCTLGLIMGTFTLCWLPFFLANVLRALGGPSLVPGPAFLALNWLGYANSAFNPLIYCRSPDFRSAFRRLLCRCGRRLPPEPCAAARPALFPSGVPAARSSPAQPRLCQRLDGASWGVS", "experiment": "Homogeneous Time-Resolved Fluorescence (HTRF) cAMP antagonist assay, IC50 determination", "type": "cell-based", "details": "CHO-K1 cells stably expressing recombinant receptor, isoproterenol at EC90", "protocol": "HTRF cAMP assays were performed according to manufacturer's instructions (Cisbio, cAMP Dynamic 2 Assay Kit; #62AM4PEJ). CHO-K1 cells stably expressing recombinant receptor were harvested and suspended in warm PBS to make a 300,000 cells/mL stock. This cell suspension was dispensed into 384 well assay plates (PerkinElmer ProxiPlate #6008280) at 5 μL per well (1500 cells/well) along with a cAMP standard curve.\nCompounds were dissolved and serially diluted (5-fold) in DMSO to generate a 10-point dose response stock. The stock was then diluted 100-fold in assay buffer (PBS containing 1 mM IBMX) before a volume of 2.5 μL was added to the cells (the final, top concentration of compound in the dose-response is typically 10 or 100 μM). After a brief incubation, 2.5 μL of isoproterenol stock, prepared at a concentration 4 times its EC90 at the receptor of interest, was added to the wells. The EC90 for isoproterenol, a beta-adrenergic agonist, was determined in separate experiments using standard methods to measure agonist potencies.\nFollowing a 1-hour incubation at room temperature, 5 μL of cAMP-D2 Reagent diluted in Lysis Buffer was added to each well followed by 5 μL of Cryptate Reagent. Plates were further incubated at room temperature for 1 hour prior to reading. Time resolved fluorescence measurements were collected on a suitable, HTRF-capable plate reader.\nCounts from the plate reader were fit to the cAMP standard curve on the assay plate in order to determine cAMP concentrations in each well, and these values were used to construct dose-response curves to obtain IC50 values.", "units": {"IC50": "µM"}, "values": [
      {"smiles": "CN1CCOc2ncc(S(=O)(=O)N3CCC4(CC3)C[C@@H](NC[C@H](O)COc3cccc(S(=O)(=O)NC5CCCC5O)c3)CO4)cc21", "note": "(stereo in doubt) [Compound 437, 3-((S)-2-hydroxy-3-((R)-8-(1-methyl-2,3-dihydro-1H-pyrido[2,3-b][1,4]oxazin-7-ylsulfonyl)-1-oxa-8-azaspiro[4.5]decan-3-ylamino)propoxy)-N-((1R,2S)-2-hydroxycyclopentyl)benzenesulfonamide]", "IC50": 0.472},
      {"smiles": "CNS(=O)(=O)c1cccc(OC[C@@H](O)CNC2COC3(CCN(S(=O)(=O)c4ccc5ccccc5c4)CC3)C2)c1", "note": "(stereo partly drawn) [Compound 1, 3-((2S)-2-hydroxy-3-(8-(naphthalen-2-ylsulfonyl)-1-oxa-8-azaspiro[4.5]decan-3-ylamino)propoxy)-N-methylbenzenesulfonamide]", "IC50": 0.0054},
      {"smiles": "CCCNS(=O)(=O)c1cccc(OC[C@@H](O)CNC2COC3(CCN(S(=O)(=O)c4ccc5ccccc5c4)CC3)C2)c1", "note": "(stereo partly drawn) [Compound 2, 3-((2S)-2-hydroxy-3-(8-(naphthalen-2-ylsulfonyl)-1-oxa-8-azaspiro[4.5]decan-3-ylamino)propoxy)-N-propylbenzenesulfonamide]", "IC50": 0.0211},
      {"smiles": "CCCCCNS(=O)(=O)c1cccc(OC[C@@H](O)CNC2COC3(CCN(S(=O)(=O)c4ccc5ccccc5c4)CC3)C2)c1", "note": "(stereo partly drawn) [Compound 3, 3-((2S)-2-hydroxy-3-(8-(naphthalen-2-ylsulfonyl)-1-oxa-8-azaspiro[4.5]decan-3-ylamino)propoxy)-N-pentylbenzenesulfonamide]", "IC50": 0.133},
      {"smiles": "CN(C)S(=O)(=O)c1cccc(OC[C@@H](O)CNC2COC3(CCN(S(=O)(=O)c4ccc5ccccc5c4)CC3)C2)c1", "note": "(stereo partly drawn) [Compound 4, 3-((2S)-2-hydroxy-3-(8-(naphthalen-2-ylsulfonyl)-1-oxa-8-azaspiro[4.5]decan-3-ylamino)propoxy)-N,N-dimethylbenzenesulfonamide]", "IC50": 0.0112},
      {"smiles": "O=S(=O)(NCC(F)(F)F)c1cccc(OC[C@@H](O)CNC2COC3(CCN(S(=O)(=O)c4ccc5ccccc5c4)CC3)C2)c1", "note": "(stereo partly drawn) [Compound 5, 3-((2S)-2-hydroxy-3-(8-(naphthalen-2-ylsulfonyl)-1-oxa-8-azaspiro[4.5]decan-3-ylamino)propoxy)-N-(2,2,2-trifluoroethyl)benzenesulfonamide]", "IC50": 0.22},
      {"smiles": "CC(C)NS(=O)(=O)c1cccc(OC[C@@H](O)CNC2COC3(CCN(S(=O)(=O)c4ccc5ccccc5c4)CC3)C2)c1", "note": "(stereo partly drawn) [Compound 6, 3-((2S)-2-hydroxy-3-(8-(naphthalen-2-ylsulfonyl)-1-oxa-8-azaspiro[4.5]decan-3-ylamino)propoxy)-N-isopropylbenzenesulfonamide]", "IC50": 0.0243},
      {"smiles": "CCN(C(C)C)S(=O)(=O)c1cccc(OC[C@@H](O)CNC2COC3(CCN(S(=O)(=O)c4ccc5ccccc5c4)CC3)C2)c1", "note": "(stereo partly drawn) [Compound 7, N-ethyl-3-((2S)-2-hydroxy-3-(8-(naphthalen-2-ylsulfonyl)-1-oxa-8-azaspiro[4.5]decan-3-ylamino)propoxy)-N-isopropylbenzenesulfonamide]", "IC50": 0.285},
      {"smiles": "O=S(=O)(NCC1CC1)c1cccc(OC[C@@H](O)CNC2COC3(CCN(S(=O)(=O)c4ccc5ccccc5c4)CC3)C2)c1", "note": "(stereo partly drawn) [Compound 8, N-(cyclopropylmethyl)-3-((2S)-2-hydroxy-3-(8-(naphthalen-2-ylsulfonyl)-1-oxa-8-azaspiro[4.5]decan-3-ylamino)propoxy)benzenesulfonamide]", "IC50": 0.0387},
      {"smiles": "O=S(=O)(NCC(F)F)c1cccc(OC[C@@H](O)CNC2COC3(CCN(S(=O)(=O)c4ccc5ccccc5c4)CC3)C2)c1", "note": "(stereo partly drawn) [Compound 9, N-(2,2-difluoroethyl)-3-((2S)-2-hydroxy-3-(8-(naphthalen-2-ylsulfonyl)-1-oxa-8-azaspiro[4.5]decan-3-ylamino)propoxy)benzenesulfonamide]", "IC50": 0.107},
      {"smiles": "CCC(C)NS(=O)(=O)c1cccc(OC[C@@H](O)CNC2COC3(CCN(S(=O)(=O)c4ccc5ccccc5c4)CC3)C2)c1", "note": "(stereo partly drawn) [Compound 10, N-sec-butyl-3-((2S)-2-hydroxy-3-(8-(naphthalen-2-ylsulfonyl)-1-oxa-8-azaspiro[4.5]decan-3-ylamino)propoxy)benzenesulfonamide]", "IC50": 0.0492},
      {"smiles": "CONS(=O)(=O)c1cccc(OC[C@@H](O)CNC2COC3(CCN(S(=O)(=O)c4ccc5ccccc5c4)CC3)C2)c1", "note": "(stereo partly drawn) [Compound 11, 3-((2S)-2-hydroxy-3-(8-(naphthalen-2-ylsulfonyl)-1-oxa-8-azaspiro[4.5]decan-3-ylamino)propoxy)-N-methoxybenzenesulfonamide]", "IC50": 0.0151},
      {"smiles": "O=S(=O)(NCCO)c1cccc(OC[C@@H](O)CNC2COC3(CCN(S(=O)(=O)c4ccc5ccccc5c4)CC3)C2)c1", "note": "(stereo partly drawn) [Compound 12, 3-((2S)-2-hydroxy-3-(8-(naphthalen-2-ylsulfonyl)-1-oxa-8-azaspiro[4.5]decan-3-ylamino)propoxy)-N-(2-hydroxyethyl)benzenesulfonamide]", "IC50": 0.0317},
      {"smiles": "COCCNS(=O)(=O)c1cccc(OC[C@@H](O)CNC2COC3(CCN(S(=O)(=O)c4ccc5ccccc5c4)CC3)C2)c1", "note": "(stereo partly drawn) [Compound 13, 3-((2S)-2-hydroxy-3-(8-(naphthalen-2-ylsulfonyl)-1-oxa-8-azaspiro[4.5]decan-3-ylamino)propoxy)-N-(2-methoxyethyl)benzenesulfonamide]", "IC50": 0.0287},
      {"smiles": "CNS(=O)(=O)c1cccc(OC[C@@H](O)CNC2COC3(CCN(S(=O)(=O)c4ccccc4)CC3)C2)c1", "note": "(stereo partly drawn) [Compound 14, 3-((2S)-2-hydroxy-3-(8-(phenylsulfonyl)-1-oxa-8-azaspiro[4.5]decan-3-ylamino)propoxy)-N-methylbenzenesulfonamide]", "IC50": 0.0301},
      {"smiles": "CNS(=O)(=O)c1cccc(OC[C@@H](O)CNC2COC3(CCN(S(=O)(=O)c4cccc(Cl)c4)CC3)C2)c1", "note": "(stereo partly drawn) [Compound 15, 3-((2S)-3-(8-(3-chlorophenylsulfonyl)-1-oxa-8-azaspiro[4.5]decan-3-ylamino)-2-hydroxypropoxy)-N-methylbenzenesulfonamide]", "IC50": 0.0124},
      {"smiles": "CNS(=O)(=O)c1cccc(OC[C@@H](O)CNC2COC3(CCN(S(=O)(=O)c4ccc5c(c4)CCCC5)CC3)C2)c1", "note": "(stereo partly drawn) [Compound 16, 3-((2S)-2-hydroxy-3-(8-(5,6,7,8-tetrahydronaphthalen-2-ylsulfonyl)-1-oxa-8-azaspiro[4.5]decan-3-ylamino)propoxy)-N-methylbenzenesulfonamide]", "IC50": 0.00747},
      {"smiles": "CNS(=O)(=O)c1cccc(OC[C@@H](O)CNC2COC3(CCN(S(=O)(=O)c4ccc(Cl)cc4)CC3)C2)c1", "note": "(stereo partly drawn) [Compound 17, 3-((2S)-3-(8-(4-chlorophenylsulfonyl)-1-oxa-8-azaspiro[4.5]decan-3-ylamino)-2-hydroxypropoxy)-N-methylbenzenesulfonamide]", "IC50": 0.0153},
      {"smiles": "CNS(=O)(=O)c1cccc(OC[C@@H](O)CNC2COC3(CCN(S(=O)(=O)c4ccc(OC)cc4)CC3)C2)c1", "note": "(stereo partly drawn) [Compound 18, 3-((2S)-2-hydroxy-3-(8-(4-methoxyphenylsulfonyl)-1-oxa-8-azaspiro[4.5]decan-3-ylamino)propoxy)-N-methylbenzenesulfonamide]", "IC50": 0.0208},
      {"smiles": "CNS(=O)(=O)c1cccc(OC[C@@H](O)CNC2COC3(CCN(S(=O)(=O)c4ccc(C)c(C)c4)CC3)C2)c1", "note": "(stereo partly drawn) [Compound 19, 3-((2S)-3-(8-(3,4-dimethylphenylsulfonyl)-1-oxa-8-azaspiro[4.5]decan-3-ylamino)-2-hydroxypropoxy)-N-methylbenzenesulfonamide]", "IC50": 0.01},
      {"smiles": "CNS(=O)(=O)c1cccc(OC[C@@H](O)CNC2COC3(CCN(S(=O)(=O)c4cccc(Br)c4)CC3)C2)c1", "note": "(stereo partly drawn) [Compound 20, 3-((2S)-3-(8-(3-bromophenylsulfonyl)-1-oxa-8-azaspiro[4.5]decan-3-ylamino)-2-hydroxypropoxy)-N-methylbenzenesulfonamide]", "IC50": 0.0132},
      {"smiles": "CNS(=O)(=O)c1cccc(OC[C@@H](O)CNC2COC3(CCN(S(=O)(=O)c4cccc(C)c4)CC3)C2)c1", "note": "(stereo partly drawn) [Compound 21, 3-((2S)-2-hydroxy-3-(8-(m-tolylsulfonyl)-1-oxa-8-azaspiro[4.5]decan-3-ylamino)propoxy)-N-methylbenzenesulfonamide]", "IC50": 0.0134},
      {"smiles": "CCC(C)c1ccc(S(=O)(=O)N2CCC3(CC2)CC(NC[C@H](O)COc2cccc(S(=O)(=O)NC)c2)CO3)cc1", "note": "(stereo partly drawn) [Compound 22, 3-((2S)-3-(8-(4-sec-butylphenylsulfonyl)-1-oxa-8-azaspiro[4.5]decan-3-ylamino)-2-hydroxypropoxy)-N-methylbenzenesulfonamide]", "IC50": 0.015},
      {"smiles": "CNS(=O)(=O)c1cccc(OC[C@@H](O)CNC2COC3(CCN(S(=O)(=O)c4cc(C)cc(C)c4)CC3)C2)c1", "note": "(stereo partly drawn) [Compound 23, 3-((2S)-3-(8-(3,5-dimethylphenylsulfonyl)-1-oxa-8-azaspiro[4.5]decan-3-ylamino)-2-hydroxypropoxy)-N-methylbenzenesulfonamide]", "IC50": 0.0138},
      {"smiles": "CNS(=O)(=O)c1cccc(OC[C@@H](O)CNC2COC3(CCN(S(=O)(=O)c4ccc(C(=O)N(C)C)cc4)CC3)C2)c1", "note": "(stereo partly drawn) [Compound 24, 4-(3-((S)-2-hydroxy-3-(3-(N-methylsulfamoyl)phenoxy)propylamino)-1-oxa-8-azaspiro[4.5]decan-8-ylsulfonyl)-N,N-dimethylbenzamide]", "IC50": 0.106}
    ]}
  ]
}
